# Test results taken from patent US12702660B2, “Method for treating cancer with an oral dosage form of an estrogen receptor-alpha inhibitor” (Eisai R&D Management Co., Ltd., priority 2019, dated 2026).
# “Also recorded” adds a separate entry of the source.
# Columns and labels:
# [1] = Plasma PK of capsules vs tablets in healthy human subjects, relative bioavailability; assay type: in vivo; conditions: capsules and tablets
# Protocol: Blood samples were collected at the planned time points from each patient and centrifuged. The plasma portion of each sample was then transferred to a K2EDTA tube, which was then shipped to a bioanalytical lab for concentration measurement using LC-MS/MS. The concentration data were then analyzed using Phoenix® WinNonlin software to obtain PK parameters. The obtained PK parameters were further summarized using analytical software.
# Blood samples (approximately 5 mL each) were collected from human patients pre-dose and at various hourly time points post-dose. Plasma concentrations of H3B-6545 were determined using a validated high-performance liquid chromatography/tandem mass spectrometry (LC-MS/MS) method. The lower limit of quantification was 0.100 ng/mL.
# The PK Analysis Set included subjects who received H3B-6545 drug product in capsules or tablets and had sufficient evaluable plasma concentration data to derive at least 1 primary PK parameter in each treatment. […]
# Pharmacokinetic parameters of H3B-6545 were calculated using noncompartmental methods, using an appropriate model for plasma data and extravascular administration. The PK parameters included, but were not limited to, area under the curve to the time of the last quantifiable concentration (AUC0-t), maximum concentration (Cmax), and time at which the maximum concentration occurred (tmax). […]
# [2] = system: ctDNA (ESR1, PIK3CA and AKT1 mutations); assay: ctDNA mutant allele frequency monitoring (BEAMing, ddPCR) in plasma; assay type: in vivo, human
# Excerpt: Fresh plasma samples were collected at baseline (predose), cycle 1 day 15 (CID15), C2D1, C3D1 and every 8 weeks thereafter with a final sample collection at disease progression. At baseline, BEAMing digital PCR was used to evaluate hotspot mutations in ESR1, PIK3CA and AKT1. Patient specific ctDNA mutations were subsequently monitored by ddPCR. Baseline tumor biopsies were subjected to a targeted Next Generation Sequencing (NGS) panel to identify hotspot mutations.
# • H3B-6545 administered once daily orally (PO QD) over a 28-day cycle • Dose escalation using a standard 3+3 study design using dose cohorts of 100, 200, 300, 450, and 600 mg/day
# Liquid biopsy assays: 10 ml of Strek plasma was collected at the site and then processed into plasma at Sysmex Inostics. cfDNA was isolated from 2 ml of plasma for BEAMing and 3 ml for Biorad ddPCR
# [3] = system: locally advanced or metastatic ER+HER2−BC; assay: Tumor response and progression-free survival, phase 1 dose escalation; assay type: in vivo, human
# Excerpt: Example 3 reports Clinical and Genomics Analysis of a single trial. The Study Population in Example 3 was as follows: • Women ≥18 years old with locally advanced or metastatic ER+HER2−BC. • Progression on at least one hormonal therapy and at least one additional therapy/regimen; no maximum number of prior lines of therapy. • ECOG performance status of 0 or 1. • Adequate bone marrow and organ function. • Excluded if had bone-only disease or inflammatory BC.
# Methods were used to analyze whether H3B-6545 inactivates both wild-type and mutant ERα by targeting cysteine 530 and enforcing a unique antagonist conformation. Methods: Women with locally advanced or metastatic HR+BC are treated (tx) with H3B-6545 drug product administered once daily orally by capsule over a 28 day cycle after progression on at least one hormonal therapy and at least one additional therapy/regimen. Dose escalation uses a 3+3 design with the option to backfill previously cleared doses and allows for intrapatient dose escalation. This example explored the safety, pharmacokinetics and pharmacodynamics of H3B-6545 in women with HR+BC to identify a recommended subsequent dose for testing.
# • H3B-6545 administered once daily orally over a 28 day cycle. • Dose escalation using a standard 3+3 study design using dose cohorts of 100, 200, 300, 450, and 600 mg QD. • Patients allowed to backfill previously cleared doses. • Intra-patient dose escalation allowed after completion of Cycle 3. Results (as of Apr. 20, 2019) Patient Population: • 46 patients were treated with H3B-6545 at doses of 100 to 600 mg QD. • 42 (91.3%) patients received a prior CDK4/6 inhibitor and 32 (69.6%) prior fulvestrant. • 30 (65.2%) patients received ≥3 prior anti-cancer therapy lines in the advanced/metastatic setting.
# [4] = Total (N = 46), 100 to 600 mg QD
# [5] = as of Apr. 20, 2019, 46 patients, 100 to 600 mg QD
smiles,measurement,setting,value
"CN(C)C(=O)/C=C/CNCCOc1ccc(/C(=C(/CC(F)(F)F)c2ccccc2)c2ccc3[nH]nc(F)c3c2)cn1 [H3B-6545, (E)-N,N-dimethyl-4-[2-[5-[(Z)-4,4,4-trifluoro-1-(3-fluoro-1H-indazol-5-yl)-2-phenylbut-1-enyl]pyridin-2-yl]oxyethylamino]but-2-enamide]",tolerability,[1],well-tolerated
same,changes in mutant allele frequencies versus response,[2]; plasma,show correlation in response to treatment; also recorded: show correlation to clinical response
same,ctDNA levels by C2D1 in patients with confirmed partial response,[2]; serial ctDNA monitoring,undetectable
same,patients with confirmed partial responses whose ctDNA levels were undetectable by C2D1,[2]; serial ctDNA monitoring,3/3
same,patients with progressive disease whose ctDNA levels increased from baseline,[2]; serial ctDNA monitoring,3/4
same,Best Overall Response: Complete Response (CR),[3]; 100 mg QD (N = 6),0 (0.0) n (%)
same,Best Overall Response: Not Evaluable (NE),[3]; 100 mg QD (N = 6),0 (0.0) n (%)
same,Best Overall Response: Partial Response (PR),[3]; 100 mg QD (N = 6),1 (16.7) n (%)
same,Best Overall Response: Progressive Disease (PD),[3]; 100 mg QD (N = 6),0 (0.0) n (%)
same,Best Overall Response: Unknown (UNK),[3]; 100 mg QD (N = 6),0 (0.0) n (%)
same,Objective Responses (CR + PR),[3]; 100 mg QD (N = 6),1 (16.7) n(%)
same,"Progressive-Free Survival, Median (95% CI)",[3]; 100 mg QD (N = 6),"9.3 (7.4, NE) months"
same,"Progressive-Free Survival, Q1 (95% CI)",[3]; 100 mg QD (N = 6),"7.5 (7.4, 11.0) months"
same,Best Overall Response: Complete Response (CR),[3]; 200 mg QD (N = 12),0 (0.0) n (%)
same,Best Overall Response: Not Evaluable (NE),[3]; 200 mg QD (N = 12),4 (33.3) n (%)
same,Best Overall Response: Partial Response (PR),[3]; 200 mg QD (N = 12),1 (8.3) n (%)
same,Best Overall Response: Progressive Disease (PD),[3]; 200 mg QD (N = 12),2 (16.7) n (%)
same,Best Overall Response: Unknown (UNK),[3]; 200 mg QD (N = 12),1 (8.3) n (%)
same,Objective Responses (CR + PR),[3]; 200 mg QD (N = 12),1 (8.3) n(%)
same,"Progressive-Free Survival, Median (95% CI)",[3]; 200 mg QD (N = 12),"5.5 (0.9, NE) months"
same,"Progressive-Free Survival, Q1 (95% CI)",[3]; 200 mg QD (N = 12),"1.5 (0.9, 5.5) months"
same,Best Overall Response: Complete Response (CR),[3]; 300 mg QD (N = 11),0 (0.0) n (%)
same,Best Overall Response: Not Evaluable (NE),[3]; 300 mg QD (N = 11),3 (27.3) n (%)
same,Best Overall Response: Partial Response (PR),[3]; 300 mg QD (N = 11),0 (0.0) n (%)
same,Best Overall Response: Progressive Disease (PD),[3]; 300 mg QD (N = 11),5 (45.5) n (%)
same,Best Overall Response: Unknown (UNK),[3]; 300 mg QD (N = 11),0 (0.0) n (%)
same,Objective Responses (CR + PR),[3]; 300 mg QD (N = 11),0 (0.0) n(%)
same,"Progressive-Free Survival, Median (95% CI)",[3]; 300 mg QD (N = 11),"1.8 (1.6, 5.4) months"
same,"Progressive-Free Survival, Q1 (95% CI)",[3]; 300 mg QD (N = 11),"1.8 (1.6, 1.8) months"
same,"Progressive-Free Survival, Q3 (95% CI)",[3]; 300 mg QD (N = 11),"5.4 (1.8, NE) months"
same,Best Overall Response: Complete Response (CR),[3]; 450 mg QD (N = 10),0 (0.0) n (%)
same,Best Overall Response: Not Evaluable (NE),[3]; 450 mg QD (N = 10),3 (30.0) n (%)
same,Best Overall Response: Partial Response (PR),[3]; 450 mg QD (N = 10),1 (10.0) n (%)
same,Best Overall Response: Progressive Disease (PD),[3]; 450 mg QD (N = 10),3 (30.0) n (%)
same,Best Overall Response: Unknown (UNK),[3]; 450 mg QD (N = 10),0 (0.0) n (%)
same,Objective Responses (CR + PR),[3]; 450 mg QD (N = 10),1 (10.0) n(%)
same,"Progressive-Free Survival, Median (95% CI)",[3]; 450 mg QD (N = 10),"7.2 (1.8, 7.3) months"
same,"Progressive-Free Survival, Q1 (95% CI)",[3]; 450 mg QD (N = 10),"1.9 (1.8, 7.2) months"
same,"Progressive-Free Survival, Q3 (95% CI)",[3]; 450 mg QD (N = 10),"7.3 (2.1, 7.5) months"
same,Best Overall Response: Complete Response (CR),[3]; 600 mg QD (N = 7),0 (0.0) n (%)
same,Best Overall Response: Not Evaluable (NE),[3]; 600 mg QD (N = 7),4 (57.1) n (%)
same,Best Overall Response: Partial Response (PR),[3]; 600 mg QD (N = 7),0 (0.0) n (%)
same,Best Overall Response: Progressive Disease (PD),[3]; 600 mg QD (N = 7),1 (14.3) n (%)
same,Best Overall Response: Unknown (UNK),[3]; 600 mg QD (N = 7),0 (0.0) n (%)
same,Objective Responses (CR + PR),[3]; 600 mg QD (N = 7),0 (0.0) n(%)
same,Best Overall Response: Complete Response (CR),[3]; [4],0 (0.0) n (%)
same,Best Overall Response: Not Evaluable (NE),[3]; [4],14 (30.4) n (%)
same,Best Overall Response: Partial Response (PR),[3]; [4],3 (6.5) n (%)
same,Best Overall Response: Progressive Disease (PD),[3]; [4],11 (23.9) n (%)
same,Best Overall Response: Unknown (UNK),[3]; [4],1 (2.2) n (%)
same,Objective Responses (CR + PR),[3]; [4],3 (6.5) n(%)
same,"Progressive-Free Survival, Median (95% CI)",[3]; [4],"7.2 (1.9, 7.4) months"
same,"Progressive-Free Survival, Q1 (95% CI)",[3]; [4],"1.8 (1.6, 2.1) months"
same,"Progressive-Free Survival, Q3 (95% CI)",[3]; [4],"7.5 (7.3, NE) months"
same,"Stable disease, patients","[3]; as of 10 Dec. 2018, 32 patients, 100 to 450 mg/day",15 patients
same,"At least 6 months of therapy completed, % of patients",[3]; [5],30.4%
same,"At least 6 months of therapy completed, patients",[3]; [5],14 patients
same,"Confirmed partial response, % of patients",[3]; [5],6.5%
same,"Confirmed partial response, patients",[3]; [5],3 patients
same,"Stable disease, % of patients",[3]; [5],37.0%
same,"Stable disease, patients",[3]; [5],17 patients
same,mPFS,"[3]; heavily pre-treated, post CDK4/6i setting, 46 patients",7.2 months
same,response of case study patient,"[3]; patient case study, 450 mg QD, after 4 cycles",partial response
same,decrease in the sum of the diameters of all target lesions,"[3]; patient case study, 450 mg QD, baseline to C3D1",−27.8%
same,decrease in the sum of the diameters of all target lesions,"[3]; patient case study, 450 mg QD, baseline to C7D1",−35.6%
